Drawing on PubChem BioAssay (NCI), this text covers GI50 and TGI for seven compounds.

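Results reflect a 48-hour exposure of cells in 96-well plates to compound at five concentrations. GI50 marks 50% less growth. TGI marks complete inhibition of growth.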

Test systems include SF-539 CNS; HCC-2998 colon; NCI-H226 lung; K-562 leukemia; M14 melanoma; UACC-257 melanoma; BT-549 breast; RPMI-8226 leukemia; OVCAR-8 ovarian; MDA-MB-435.
Common to all, as to assay: growth of human tumour cells (NCI), 48 h

Take `CC[C@H](C)[C@H](NC(=O)NC(C)(C)C)C(=O)N(C)[C@H](C[C@@H](OC(C)=O)c1nc(C(=O)N[C@@H](Cc2ccccc2)C[C@H](C)C(=O)OC)cs1)C(C)C`: the GI50 in the assay with SF-539 CNS is 0.628 µM; with HCC-2998 colon, 0.507 µM; in the assay with NCI-H226 lung, 1.95 µM; with K-562 leukemia, 0.461 µM; in the assay on M14 melanoma, 0.476 µM; in the assay on UACC-257 melanoma it was 4.67 µM. The GI50 is 0.241 µM in the assay on BT-549 breast, 0.263 µM with RPMI-8226 leukemia, 0.936 µM with OVCAR-8 ovarian and 0.0884 µM with MDA-MB-435. The TGI with SF-539 CNS is 1.82 µM; in the assay on HCC-2998 colon, > 25 µM; in the assay with NCI-H226 lung it was > 25 µM; with K-562 leukemia, > 25 µM; in the assay on M14 melanoma, 2.08 µM; with UACC-257 melanoma, > 25 µM. Also, the TGI is 1.52 µM with BT-549 breast, 4.2 µM in the assay on RPMI-8226 leukemia, > 25 µM in the assay on OVCAR-8 ovarian and 0.486 µM in the assay with MDA-MB-435.

With `Nc1nccc2c1ccn2-c1cccc(NC(=O)c2ccc(N3CCOCC3)c(C(F)(F)F)c2)c1`, the GI50 with SF-539 CNS is 1.02 µM; in the assay with HCC-2998 colon, 1.63 µM; with NCI-H226 lung it was 1.74 µM; in the assay on K-562 leukemia it was 0.233 µM; in the assay with M14 melanoma it was 0.788 µM; in the assay on UACC-257 melanoma, 2.08 µM. The GI50 in the assay with BT-549 breast is 1.04 µM; in the assay with RPMI-8226 leukemia, 0.992 µM; in the assay with OVCAR-8 ovarian it was 1.34 µM; in the assay with MDA-MB-435 it was 0.163 µM. The TGI was 4 µM with SF-539 CNS; > 44.5 µM with HCC-2998 colon; 18.1 µM with NCI-H226 lung; > 39.4 µM in the assay on K-562 leukemia; 7.6 µM with M14 melanoma; 31.1 µM in the assay with UACC-257 melanoma. In addition, the TGI in the assay on BT-549 breast is 5.5 µM; with RPMI-8226 leukemia, 4.98 µM; in the assay on OVCAR-8 ovarian, 10.3 µM; in the assay with MDA-MB-435, > 50 µM.

Take `Fc1cccc(Cl)c1Cn1c(-c2c(F)cccc2Cl)nc2ccccc21`: the GI50 in the assay on SF-539 CNS is 23.1 µM; with HCC-2998 colon it was 2.31 µM; in the assay on NCI-H226 lung, 22 µM; with K-562 leukemia, 10.1 µM; in the assay with M14 melanoma, 19.4 µM; in the assay with UACC-257 melanoma, 12.9 µM. For the same compound, the GI50 in the assay on BT-549 breast is 25.4 µM; in the assay on RPMI-8226 leukemia, 13.3 µM; in the assay with OVCAR-8 ovarian, 17.3 µM; in the assay on MDA-MB-435, 20.1 µM. The TGI was 46.2 µM in the assay on SF-539 CNS; 9.87 µM with HCC-2998 colon; 57.8 µM in the assay with NCI-H226 lung; > 100 µM in the assay with K-562 leukemia; 53.9 µM with M14 melanoma; 28.6 µM in the assay on UACC-257 melanoma. Also, the TGI in the assay on BT-549 breast was found to be 53.2 µM; in the assay on RPMI-8226 leukemia, 60 µM; with OVCAR-8 ovarian it was 37.8 µM; with MDA-MB-435, 61.7 µM.

Consider `O=C1/C(=C/c2ccc(Cl)cc2)CCC1CN1CCOCC1` (stereo not given), for which the TGI came out at 34.6 µM in the assay with SF-539 CNS; 23 µM with HCC-2998 colon; 42.3 µM in the assay with NCI-H226 lung; 8.06 µM in the assay with K-562 leukemia; 19.4 µM in the assay with M14 melanoma; 21.8 µM in the assay on UACC-257 melanoma. Besides, the TGI in the assay with BT-549 breast is 26 µM; with RPMI-8226 leukemia it was > 28.3 µM; in the assay on OVCAR-8 ovarian it was 17.2 µM; with MDA-MB-435, 14.3 µM.

With `C[C@@H](Oc1cc(-n2cnc3ccc(OCC4CCN(C)CC4)cc32)sc1C(N)=O)c1ccccc1Cl`, the GI50 in the assay with SF-539 CNS is 0.107 µM; with HCC-2998 colon, 0.0815 µM; in the assay on NCI-H226 lung it was 0.674 µM; in the assay with K-562 leukemia, 0.0437 µM; in the assay on M14 melanoma it was 0.0561 µM; with UACC-257 melanoma, 0.117 µM. For the same compound, the GI50 is 0.397 µM with BT-549 breast, 0.094 µM with RPMI-8226 leukemia, 0.0793 µM with OVCAR-8 ovarian and 0.0126 µM with MDA-MB-435. Also, the TGI with SF-539 CNS came to 1.62 µM; in the assay on HCC-2998 colon, 3.27 µM; with NCI-H226 lung it was 4.81 µM; with K-562 leukemia, 3.34 µM; with M14 melanoma, 3.12 µM; in the assay with UACC-257 melanoma, 4.99 µM. For the same compound, the TGI in the assay on BT-549 breast was determined as 3.58 µM; with RPMI-8226 leukemia, 4.61 µM; in the assay with OVCAR-8 ovarian it was 3.11 µM; in the assay on MDA-MB-435, 0.0643 µM.

For the compound `CN(C)CC1CCCCCC(Br)C1=O` (stereo not given), the TGI with SF-539 CNS was 31.8 µM; in the assay with HCC-2998 colon, 25.7 µM; with NCI-H226 lung, > 53.9 µM; in the assay on K-562 leukemia, > 100 µM; with M14 melanoma it was 37.5 µM; with UACC-257 melanoma it was 23 µM. Also, the TGI in the assay on BT-549 breast stood at 26.4 µM; in the assay on RPMI-8226 leukemia it was 3.96 µM; in the assay on OVCAR-8 ovarian, 32.8 µM; in the assay on MDA-MB-435, 34.1 µM.

In the case of `COC1C(CO)OC(n2c3c(Cl)cccc3c3c4c(c5c6cccc(Cl)c6[nH]c5c32)C(=O)NC4=O)C(O)C1O` (stereo not given), the TGI with SF-539 CNS was 0.489 µM; in the assay on HCC-2998 colon it was > 20 µM; in the assay on NCI-H226 lung it was 0.666 µM; with K-562 leukemia, > 100 µM; in the assay with M14 melanoma, 10.7 µM; in the assay with UACC-257 melanoma, 1.75 µM. Besides, the TGI in the assay with BT-549 breast is 12.4 µM; in the assay with RPMI-8226 leukemia, > 18.7 µM; with OVCAR-8 ovarian, 16.6 µM; in the assay with MDA-MB-435 it was > 100 µM.
